{
  "source": "patent US20130197080A1",
  "about": "“USE OF TERIFLUNOMIDE FOR TREATING MULTIPLE SCLEROSIS” (SANOFI, priority 2010, published 2013)",
  "system": "patients with RMS",
  "assay": "TEMSO Phase III trial: MRI outcomes",
  "assay_type": "in vivo, humans",
  "settings": "108 weeks; for Brain parenchymal fraction, LS mean change from baseline / Brain parenchymal fraction, LS mean difference vs placebo / Brain parenchymal fraction, Relative reduction vs placebo: MMRM; for Number of Gd-enhancing T1 lesions per scan, Estimate / Number of unique active lesions per scan, Estimate: Poisson regression",
  "description": "A treatment neurologist at each site was responsible for evaluating patient eligibility, supervision of study medication administration, recording and treating adverse events and assessing relapses, and monitoring safety assessments. An independent examining neurologist, blinded to treatment assignment, performed all EDSS scores and functional system assessments. EDSS scores were determined at screening, baseline, every 12 weeks following baseline visit, and at unscheduled relapse visits. MRI scans were performed at baseline and Weeks 24, 48, 72 and 108, and conducted according to the study protocol; image data were collected at clinical site MRI facilities.\nThe key secondary endpoint was to determine the effect of teriflunomide on delaying disability progression at Week 108 as assessed by changes in EDSS. Sustained disability progression was defined as a persisting increase from baseline of at least 1.0 point on the EDSS (or at least 0.5 for patients with a baseline EDSS score greater than 5.5) for at least 12 weeks. The key prespecified MRI endpoint was the effect of teriflunomide on burden of disease (total lesion volume). Other MRI endpoints included number of gadolinium (Gd)-enhancing T1 lesions, volume of T1 hypointense lesion components (‘black holes’), number of unique active lesions and brain atrophy. Patient-reported fatigue, assessed by the Fatigue Impact Scale (FIS), was an additional secondary endpoint.\nChange from baseline in burden of disease and T1 hypointense lesion volume were analysed with a mixed-effect model with repeated measures (MMRM) using cubic root transformed data. Atrophy was analysed as change from baseline brain volume with the MMRM. The number of Gd-enhancing T1 lesions and number of unique active lesions per scan were analysed using a Poisson regression model with robust error variance. The percentage of patients free from lesions was analysed using a logistic regression model. MRI scans obtained within 14 days of systemic corticosteroid therapy were excluded from all analyses.\nThe MMRM model (mixed-effect model with repeated measures) included treatment, EDSS strata, region, visit, treatment-by-visit interaction, baseline value and baseline-by-visit interaction as covariates. The percentage of patients free from lesions was analysed by a logistic regression model that included treatment, number of lesions at baseline, EDSS strata and region as covariates. The Poisson regression model included treatment, number of lesions at baseline, EDSS strata and region as covariates, and log-transformed number of scans as an offset variable. The change from baseline in fatigue impact scale (FIS) total score was analyzed using MMRM.",
  "key": {"[1]": {"settings": "7 mg once daily oral vs placebo"}, "[2]": {"settings": "7 mg once daily oral, ITT population"}, "[3]": {"settings": "7 mg once daily oral, MMRM using cubic root transformed volume data"}, "[4]": {"settings": "14 mg once daily oral vs placebo"}, "[5]": {"settings": "14 mg once daily oral, ITT population"}, "[6]": {"settings": "14 mg once daily oral, MMRM using cubic root transformed volume data"}},
  "data": [
    {"smiles": "C/C(O)=C(\\C#N)C(=O)Nc1ccc(C(F)(F)F)cc1", "note": "[teriflunomide, (Z)-2-cyano-3-hydroxy-but-2-enoic acid-(4′-trifluoromethylphenyl)-amide]", "values": [
      {"measurement": "brain atrophy from baseline vs placebo", "setting": "7 mg and 14 mg groups", "value": "No significant differences"},
      {"measurement": "Number of Gd-enhancing T1 lesions per scan, Relative risk", "setting": "[1]", "value": 0.428},
      {"measurement": "Number of unique active lesions per scan, Relative risk", "setting": "[1]", "value": 0.523},
      {"measurement": "Number of Gd-enhancing T1 lesions per scan, Relative reduction vs placebo", "setting": "7 mg once daily oral", "value": 57.2, "unit": "%"},
      {"measurement": "Number of unique active lesions per scan, Relative reduction vs placebo", "setting": "7 mg once daily oral", "value": 47.7, "unit": "%"},
      {"measurement": "Burden of disease, Mean change from baseline", "setting": "[2]", "value": 1.308, "unit": "mL"},
      {"measurement": "Proportion of patients free from Gd-enhancing T1 lesions, %", "setting": "[2]", "value": "(51.4) %"},
      {"measurement": "T1 hypointense lesion volume, Mean change from baseline", "setting": "[2]", "value": 0.499, "unit": "mL"},
      {"measurement": "Brain parenchymal fraction, LS mean change from baseline", "setting": "7 mg once daily oral", "value": "−0.003"},
      {"measurement": "Brain parenchymal fraction, LS mean difference vs placebo", "setting": "7 mg once daily oral", "value": 0.001},
      {"measurement": "Brain parenchymal fraction, Relative reduction vs placebo", "setting": "7 mg once daily oral", "value": 25.0, "unit": "%"},
      {"measurement": "Burden of disease, LS mean change from baseline", "setting": "[3]", "value": 0.080, "unit": "mL"},
      {"measurement": "Burden of disease, LS mean difference vs placebo", "setting": "[3]", "value": -0.053, "unit": "mL"},
      {"measurement": "Burden of disease, Relative reduction vs placebo", "setting": "[3]", "value": 39.4, "unit": "%"},
      {"measurement": "T1 hypointense lesion volume, LS mean change from baseline", "setting": "[3]", "value": 0.079, "unit": "mL"},
      {"measurement": "T1 hypointense lesion volume, LS mean difference vs placebo", "setting": "[3]", "value": -0.016, "unit": "mL"},
      {"measurement": "T1 hypointense lesion volume, Relative reduction vs placebo", "setting": "[3]", "value": 16.7, "unit": "%"},
      {"measurement": "Number of Gd-enhancing T1 lesions per scan, Estimate", "setting": "[2]", "value": 0.570},
      {"measurement": "Number of unique active lesions per scan, Estimate", "setting": "[2]", "value": 1.288},
      {"measurement": "Number of Gd-enhancing T1 lesions per scan, Relative risk", "setting": "[4]", "value": 0.196},
      {"measurement": "Number of unique active lesions per scan, Relative risk", "setting": "[4]", "value": 0.306},
      {"measurement": "Burden of disease, Mean change from baseline", "setting": "[5]", "value": 0.723, "unit": "mL"},
      {"measurement": "T1 hypointense lesion volume, Mean change from baseline", "setting": "[5]", "value": 0.331, "unit": "mL"},
      {"measurement": "Brain parenchymal fraction, LS mean change from baseline", "setting": "14 mg once daily oral", "value": "−0.003"},
      {"measurement": "Brain parenchymal fraction, LS mean difference vs placebo", "setting": "14 mg once daily oral", "value": 0.001},
      {"measurement": "Brain parenchymal fraction, Relative reduction vs placebo", "setting": "14 mg once daily oral", "value": 25.0, "unit": "%"},
      {"measurement": "Burden of disease, LS mean change from baseline", "setting": "[6]", "value": 0.043, "unit": "mL"},
      {"measurement": "Burden of disease, LS mean difference vs placebo", "setting": "[6]", "value": -0.089, "unit": "mL"},
      {"measurement": "T1 hypointense lesion volume, LS mean change from baseline", "setting": "[6]", "value": 0.066, "unit": "mL"},
      {"measurement": "T1 hypointense lesion volume, LS mean difference vs placebo", "setting": "[6]", "value": -0.030, "unit": "mL"},
      {"measurement": "Number of Gd-enhancing T1 lesions per scan, Estimate", "setting": "[5]", "value": 0.261},
      {"measurement": "Number of unique active lesions per scan, Estimate", "setting": "[5]", "value": 0.754}
    ]}
  ]
}
